Experimental data taken from US10821115B2, “Compounds that inhibit Mcl-1 protein” (priority 2017, dated 2020).
Where two headings read alike, the source gives them in different places.

Tests used:
[1] = target: recombinant human Mcl-1 (residues 171-327) / Bim interaction (Homo sapiens (Human), UniProt Q07820); assay: biochemical; type: binding; conditions: 0.1 nM Mcl-1(171-327), 0.05 nM biotin-Bim (51-76); read-out: Mcl-1 HTRF IC50
[2] = test system: human multiple myeloma cell line, OPM-2; assay: Cell viability assay (OPM-2 10 FBS), CellTiter-Glo; type: cell-based
How it was run: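 Cells were seeded at 3000 cells/well in RPMI 1640 with 10% FBS and exposed to serially diluted compounds for 16 h at 37 °C, 5% CO2.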

[3] = Homo sapiens, OPM-2, 16 h, read-out: OPM-2 10% FBS IC50 IP, OPM-2 cells, 10% FBS, 16 h incubation
[4] = read-out: OPM-2 10% FBS IC50 IP, OPM-2 cells, 10% FBS, 16 h incubation

recombinant human Mcl-1 (residues 171-327) / Bim interaction, sequence (Q07820 171-327): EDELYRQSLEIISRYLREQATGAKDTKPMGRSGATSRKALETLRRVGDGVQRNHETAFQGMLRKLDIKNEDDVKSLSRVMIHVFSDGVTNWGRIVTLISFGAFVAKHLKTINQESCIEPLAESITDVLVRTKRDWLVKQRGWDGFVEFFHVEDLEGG

SMILES	IC50 [1] [nM]	IC50 [2, 3] [nM]	IC50 [2, 4] [nM]
CO[C@@]1(CN2CCc3ncsc3C2)/C=C/C[C@H](C)[C@@H](C)S(=O)(=O)NC(=O)c2ccc3c(c2)N(C[C@@H]2CC[C@H]21)C[C@@]1(CCCc2cc(Cl)ccc21)CO3 [Example 209]	0.552	437	–
CO[C@@]1(CN2CCN3CCN(C)C[C@@H]3C2)/C=C/C[C@H](C)[C@@H](C)S(=O)(=O)NC(=O)c2ccc3c(c2)N(C[C@@H]2CC[C@H]21)C[C@@]1(CCCc2cc(Cl)ccc21)CO3 [Example 210]	0.138	–	185
CO[C@@]1(CN2CCc3cncnc3C2)/C=C/C[C@H](C)[C@@H](C)S(=O)(=O)NC(=O)c2ccc3c(c2)N(C[C@@H]2CC[C@H]21)C[C@@]1(CCCc2cc(Cl)ccc21)CO3 [Example 211]	0.147	156	–
CON(C)C[C@]1(OC)/C=C/C[C@H](C)[C@@H](C)S(=O)(=O)NC(=O)c2ccc3c(c2)N(C[C@@H]2CC[C@H]21)C[C@@]1(CCCc2cc(Cl)ccc21)CO3 [Example 212, (1S,3′R,6′R,7′S,8′E,11′S,12′R)-6-chloro-7′-methoxy-7′-((methoxy(methyl)amino)methyl)-11′,12′-dimethyl-3,4-dihydro-2H,15′H-spiro[naphthalene-1,22′-[20]oxa[13]thia[1,14]diazatetracyclo [14.7.2.0~3,6~.0~19,24~]pentacosa[8,16,18,24]tetraen]-15′-one 13′,13′-dioxide]	0.122	307	–
CO[C@]1(CN2CCc3ncncc3C2)/C=C/C[C@H](C)[C@@H](C)S(=O)(=O)NC(=O)c2ccc3c(c2)N(C[C@@H]2CC[C@H]21)C[C@@]1(CCCc2cc(Cl)ccc21)CO3 [Example 222, (1S,3′R,6′R,7′R,8′E,11′S,12′R)-6-chloro-7′-(7,8-dihydropyrido[4,3-d]pyrimidin-6(5H)-ylmethyl)-7′-methoxy-11′,12′-dimethyl-3,4-dihydro-2H,15′H-spiro[naphthalene-1,22′-[20]oxa[13]thia[1,14]diazatetracyclo [14.7.2.0~3,6~.0~19,24~]pentacosa[8,16,18,24]tetraen]-15′-one 13′,13′-dioxide]	0.08	118	–
CO[C@@]1(CN2CCc3ncncc3C2)/C=C/C[C@H](C)[C@@H](C)S(=O)(=O)NC(=O)c2ccc3c(c2)N(C[C@@H]2CC[C@H]21)C[C@@]1(CCCc2cc(Cl)ccc21)CO3 [Example 223, (1S,3′R,6′R,7′S,8′E,11′S,12′R)-6-chloro-7′-(7,8-dihydropyrido[4,3-d]pyrimidin-6(5H)-ylmethyl)-7′-methoxy-11′,12′-dimethyl-3,4-dihydro-2H,15′H-spiro[naphthalene-1,22′-[20]oxa[13]thia[1,14]diazatetracyclo [14.7.2.0~3,6~.0~19,24~]pentacosa[8,16,18,24]tetraen]-15′-one 13′,13′-dioxide]	0.251	258	–
CO[C@]1(CN2CC3(C2)CS(=O)(=O)C3)/C=C/C[C@H](C)[C@@H](C)S(=O)(=O)NC(=O)c2ccc3c(c2)N(C[C@@H]2CC[C@H]21)C[C@@]1(CCCc2cc(Cl)ccc21)CO3 [Example 224, (1S,3′R,6′R,7′R,8′E,11′S,12′R)-6-chloro-7′-((2,2-dioxido-2-thia-6-azaspiro[3.3]hept-6-yl)methyl)-7′-methoxy-11′,12′-dimethyl-3,4-dihydro-2H,15′H-spiro[naphthalene-1,22′-[20]oxa[13]thia[1,14]diazatetracyclo [14.7.2.0~3,6~.0~19,24~]pentacosa[8,16,18,24]tetraen]-15′-one 13′,13′-dioxide]	0.127	157	–
CO[C@]1(CN2CCN3CCN(S(C)(=O)=O)C[C@@H]3C2)/C=C/C[C@H](C)[C@@H](C)S(=O)(=O)NC(=O)c2ccc3c(c2)N(C[C@@H]2CC[C@H]21)C[C@@]1(CCCc2cc(Cl)ccc21)CO3 [Example 227]	0.207	–	131
CO[C@@]1(CN2CCN3CCN(C(=O)CCS(=O)(=O)c4ccccc4)C[C@@H]3C2)/C=C/C[C@H](C)[C@@H](C)S(=O)(=O)NC(=O)c2ccc3c(c2)N(C[C@@H]2CC[C@H]21)C[C@@]1(CCCc2cc(Cl)ccc21)CO3 [Example 233]	0.516	–	202
C=CC(=O)N1CCN2CCN(C[C@]3(OC)/C=C/C[C@H](C)[C@@H](C)S(=O)(=O)NC(=O)c4ccc5c(c4)N(C[C@@H]4CC[C@H]43)C[C@@]3(CCCc4cc(Cl)ccc43)CO5)C[C@H]2C1 [Example 234]	0.163	–	71
COCC(=O)N1CCN(C[C@]2(OC)/C=C/C[C@H](C)[C@@H](C)S(=O)(=O)NC(=O)c3ccc4c(c3)N(C[C@@H]3CC[C@H]32)C[C@@]2(CCCc3cc(Cl)ccc32)CO4)CC1 [Example 246, (1S,3′R,6′R,7′S,8′E,11′S,12′R)-6-chloro-7′-methoxy-7′-((4-(methoxyacetyl)-1-piperazinyl)methyl)-11′,12′-dimethyl-3,4-dihydro-2H,15′H-spiro[naphthalene-1,22′-[20]oxa[13]thia[1,14]diazatetracyclo [14.7.2.0~3,6~.0~19,24~]pentacosa[8,16,18,24]tetraen]-15′-one 13′,13′-dioxide]	0.099	138	–
CCN1CCN(C[C@]2(OC)/C=C/C[C@H](C)[C@@H](C)S(=O)(=O)NC(=O)c3ccc4c(c3)N(C[C@@H]3CC[C@H]32)C[C@@]2(CCCc3cc(Cl)ccc32)CO4)CC1 [Example 247, (1S,3′R,6′R,7′S,8′E,11′S,12′R)-6-chloro-7′-((4-ethyl-1-piperazinyl)methyl)-7′-methoxy-11′,12′-dimethyl-3,4-dihydro-2H,15′H-spiro[naphthalene-1,22′-[20]oxa[13]thia[1,14]diazatetracyclo [14.7.2.0~3,6~.0~19,24~]pentacosa[8,16,18,24]tetraen]-15′-one 13′,13′-dioxide]	0.129	107	–
CO[C@@]1(CN2CCN(CC(F)(F)F)CC2)/C=C/C[C@H](C)[C@@H](C)S(=O)(=O)NC(=O)c2ccc3c(c2)N(C[C@@H]2CC[C@H]21)C[C@@]1(CCCc2cc(Cl)ccc21)CO3 [Example 248, (1S,3′R,6′R,7′S,8′E,11′S,12′R)-6-chloro-7′-methoxy-11′,12′-dimethyl-7′-((4-(2,2,2-trifluoroethyl)-1-piperazinyl)methyl)-3,4-dihydro-2H,15′H-spiro[naphthalene-1,22′-[20]oxa[13]thia[1,14]diazatetracyclo [14.7.2.0~3,6~.0~19,24~]pentacosa[8,16,18,24]tetraen]-15′-one 13′,13′-dioxide]	0.222	518	–
CO[C@@]1(CN2CCN(C(C)=O)CC2)/C=C/C[C@H](C)[C@@H](C)S(=O)(=O)NC(=O)c2ccc3c(c2)N(C[C@@H]2CC[C@H]21)C[C@@]1(CCCc2cc(Cl)ccc21)CO3 [Example 249, (1S,3′R,6′R,7′S,8′E,11′S,12′R)-7′-((4-acetyl-1-piperazinyl)methyl)-6-chloro-7′-methoxy-11′,12′-dimethyl-3,4-dihydro-2H,15′H-spiro[naphthalene-1,22′-[20]oxa[13]thia[1,14]diazatetracyclo [14.7.2.0~3,6~.0~19,24~]pentacosa[8,16,18,24]tetraen]-15′-one 13′,13′-dioxide]	0.063	114	–
